Assay results from patent US9623025B2 (priority 2009, dated 2017).

Biological target: hCA IX (Homo sapiens, UniProt Q16790)
Experiment: biochemical

- Ki: 41.9 to 75.7 nM
SMILES: Cc1cn(-c2cc(NC(=O)c3ccc(C)c(Nc4nccc(-c5cccnc5)n4)c3)cc(C(F)(F)F)c2)cn1 [Nilotinib, 4-methyl-3-[[4-(3-pyridinyl)-2-pyrimidinyl]amino]-N-[5-(4-methyl-1H-imidazol-1-yl)-3-(trifluoromethyl)phenyl] benzamide]
